According to PMC10009755, “Discovery and Characterization of BAY-805, a Potent and Selective Inhibitor of Ubiquitin-Specific Protease USP21” (Journal of Medicinal Chemistry, 2023):
pIC50: −log10 of the molar value. In brackets after ≈: the same amount, converted by molar mass. Where two headings read alike, the source gives them in different places.

What was measured:
Aqueous solubility = type: physicochemical; conditions: PBS pH 6.5, pH 6.5, PBS pH 6.5
Description: Test compounds were applied as DMSO solutions or directly from powder. After the addition of the buffer, solutions were shaken at rt for 24 h. The undissolved material was removed by filtration or centrifugation. The compound dissolved in the supernatant was quantified by HPLC-UV or HPLC-MS/MS.

USP21 [1] = biological target: T1, USP21 (Homo sapiens, UniProt Q9UK80)
T1 sequence (Q9UK80 1-565): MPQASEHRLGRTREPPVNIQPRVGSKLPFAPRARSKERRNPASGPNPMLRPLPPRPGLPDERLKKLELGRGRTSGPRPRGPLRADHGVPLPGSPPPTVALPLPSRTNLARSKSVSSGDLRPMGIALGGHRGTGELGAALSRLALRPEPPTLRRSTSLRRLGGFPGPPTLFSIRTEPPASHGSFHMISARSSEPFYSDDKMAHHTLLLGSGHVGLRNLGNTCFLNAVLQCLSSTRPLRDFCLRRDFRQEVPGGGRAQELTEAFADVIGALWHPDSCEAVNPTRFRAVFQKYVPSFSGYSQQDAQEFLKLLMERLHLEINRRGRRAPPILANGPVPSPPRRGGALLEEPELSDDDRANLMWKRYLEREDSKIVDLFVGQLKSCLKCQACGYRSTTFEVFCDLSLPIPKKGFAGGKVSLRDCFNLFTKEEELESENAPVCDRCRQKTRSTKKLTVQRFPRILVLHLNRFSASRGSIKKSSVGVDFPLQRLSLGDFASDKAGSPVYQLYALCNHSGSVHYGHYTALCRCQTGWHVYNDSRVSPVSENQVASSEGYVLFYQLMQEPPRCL
Description: The final assay volume was 6 μL. […] First, 2 μL of 1 nM USP21 (or selectivity enzyme) solution was added to the compound plate and preincubated for 15–20 min at room temperature. […] The reaction was stopped by 50 mM citric acid in 25 mM HEPES, pH 7.5, containing 0.01% BSA. […] The USP21 and USP22 were measured with five flashes and USP2 and USP7 in fly mode.

USP21 [2] = biological target: T1, USP21; experiment: biochemical
Description: To this end, we developed a USP21 activity assay that is based on the deubiquitination of a STING-derived peptide (a USP21-specific substrate[17],[18]) by purified recombinant human full-length USP21 using time-resolved fluorescence resonance energy transfer (TR-FRET) technology (referred to as a homogeneous time-resolved fluorescence (HTRF)-assay, for details see the Supporting Information).[39]
All substrate and enzyme solutions were diluted in an assay buffer. […] Incubation time was 15–20 min at room temperature. […] The stop solution (DUB inhibitor PR619, Abcam) was prepared in 25 mM HEPES, pH 7.5 (Alfa Aesar) containing 0.01% BSA and then left for 10 min at room temperature before filtering with a 0.2 μM PES Membrane (Thermo Fisher). The reaction was stopped with the addition of 2 μL of 200 μM PR619. […] The plates were measured on the ViewLux in screening or PHERAstar FSX in compound profiling. […] The number of flashes per well was set to 3. All of the experimental data were plotted using Genedata analysis. The Z′-factor and S/B of the assay were >0.7 and ∼2, respectively.

[3] = biological target: T2, C-terminal HiBiT-tagged USP21 (Homo sapiens, UniProt Q9UK80); experiment: USP21 HiBiT CETSA; type: cell-based; conditions: 49 °C, HEK293T cells
T2 construct: expressed in transfected cells; host or cells: HEK293T
T2 sequence (Q9UK80 1-565): T1 sequence (Q9UK80 1-565)
Description: In particular, we utilized a HiBiT CETSA assay format[42],[43] conducted in intact HEK293T cells. Cells were transfected with USP21 fused to a small proluminescent NanoLuc HiBiT tag, which, when complemented with the Large BiT NanoLuc fragment, produces a quantifiable luminescence signal.
HEK293T cells were seeded in a six-well plate at 8 × 10^5 cells/well in 2 mL of DMEM supplemented with 10% FBS, penicillin (100 U/mL), and streptomycin (100 μg/mL) and transfected 4 h after seeding using an X-tremeGENE HP transfection reagent, following the manufacturer’s instructions with a total of 2 μg of plasmid constructs (C-terminally tagged USP21 HiBiT and empty pCDNA3.1 vector). […] The breathable paper adhesive film was then replaced with a PCR adhesive film, and cells were heated at indicated temperatures in an Applied Biosystems VeritiPro thermal cycler for 3 min, followed by 3 min incubation at rt before the addition of LgBiT solution (200 nM LgBiT, 2% NP-40, protease inhibitors (Roche cOmplete, ethylenediaminetetraacetic acid (EDTA)-free Protease Inhibitor) in OptiMEM no phenol red (Gibco)) to lyse cells.

in vitro = in vitro ADME; conditions: human, Caco-2, pH 7.2
Description: Caco-2 cells [purchased from the German Collection of Microorganisms and Cell Cultures (DSMZ)] were seeded at a density of 4.5 × 10^4 cells/well on 24-well insert plates [0.4 μm pore size, 0.3 cm^2 (Costar)] and grown for 13–15 days in DMEM medium supplemented with 10% fetal calf serum (FCS), 1% GlutaMAX (100×, Gibco), 100 U/mL penicillin, 100 μg/mL streptomycin (Gibco), and 1% nonessential amino acids (100×, Thermo Fischer Scientific). […] The medium was changed every 2–3 days.
The bidirectional transport assay for the evaluation of Caco-2 permeability was undertaken in 24-well insert plates using a robotic system (Tecan). Before the assay was run, the culture medium was replaced by a transport medium (FCS-free HEPES carbonate transport buffer pH 7.2). For the assessment of monolayer integrity, the transepithelial electrical resistance (TEER) was measured. Only monolayers with a TEER of at least 400 Ω·cm^2 were used. Test compounds were pre-dissolved in DMSO and added either to the apical or basolateral compartment at a final concentration of 2 μM. The evaluation was performed in triplicate. […] The efflux ratio (ER) basolateral (B) to apical (A) was calculated by dividing Papp B–A by Papp A–B.

log D measurement (HPLC) = type: physicochemical; conditions: reverse-phase HPLC, pH 7.5, pH 7.5, HPLC method; read-out: logD7.5
Description: log D values at pH 7.5 were recorded using an indirect method for determining hydrophobicity constants by reverse-phase HPLC. A series of compounds with well-known log D values were used for calibration. Test compounds were injected into the same HPLC system. The lipophilicity of compounds was then assessed by comparison to the calibration curve.

NF-κB activation = experiment: NF-κB reporter assay; type: cell-based; conditions: HEK293T cells, up to 10 μM
Description: Yang and colleagues reported that USP21 inhibition induces NF-κB activation by preventing deubiquitination of RIP1.[15] K63 ubiquitinated RIP1 is required for NF-κB activation, and thus USP21-mediated deubiquitination of RIP1 shuts down the NF-κB pathway.
Four hours after replating, cells were treated with compounds or DMSO (note: DMSO concentrations were kept consistent across all cells). Promega Dual-Luciferase Reporter Assay kit was then used to prepare samples for Firefly and Renilla signal measurement on a CLARIOstar microplate reader (BMG) 20 h after compound treatment. Relative luciferase units were calculated by normalizing the Firefly signal to the background Renilla signal, followed by normalization to DMSO controls of wild-type USP21.

## N#Cc1ccc(Cc2nnc(NC(=O)[C@H](NC(=O)C3(C(F)(F)F)CCCCC3)C3CCCC3)s2)cc1 [Compound 20, FC(F)(F)C1(CCCCC1)C(=O)N[C@H](C2CCCC2)C(=O)Nc3nnc(Cc4ccc(cc4)C#N)s3]
Aqueous solubility
  solubility at 24 h: 1.33 µM (≈ 0.691 µg/mL)
USP21 [1]
  pIC50: 8.10
USP21 [2]
  pIC50: 7.89
[3]
  cellular thermal stabilization of USP21 (in words): Strong thermal stabilization of USP21
In vitro; 2 μM, 2 h
  Papp A→B at 2 h, 2 µM: 3.4 ×10⁻⁶ cm/s
In vitro; Papp B–A / Papp A–B, read-out: Caco-2 efflux ratio (ER)
  efflux ratio at 2 h, 2 µM: 0.7
Log D measurement (HPLC)
  chromatographic logD: 3.7
NF-κB activation
  NF-κB activation (in words): significant NF-κB activation levels
